Earlier results as cited in patent US20090196923A1, “CONTROLLED RELEASE FORMULATION COMPRISING ANTI-EPILEPTIC DRUGS” (priority 2006, published 2009).

NC(=O)N1c2ccccc2CC(=O)c2ccccc21 [Oxcarbazepine, 10, 11-dihydro-10-oxocarbamazepine]
water solubility: poor water solubility
